Data taken from patent US6673791B2, “Non-nucleoside reverse transcriptase inhibitors” (Boehringer Ingelheim (Canada) Ltd., priority 2001, dated 2004).
pEC50, pIC50: −log10 of the molar value. Where two headings read alike, the source gives them in different places.

Tests used:
[1] = tested on: WT RT (HIV-1 wild type strain); assay: EC50 assay, WT RT strain; assay type: cell-based
Text: (§1) Reverse TranscriptASE (RT) Assays
(§2) The assays are as described in WO 01/96338A1, the contents of which are hereby incorporated herein. The results are listed in Tables 8 as IC50(nM) and EC50(nM).

[2] = molecular target: T1, Y188L mutant RT (HIV-1 RT) (Human immunodeficiency virus type 1 group M subtype B, UniProt P03366, Y787L); assay: biochemical; conditions: for IC50: IC50 Y188L (nM); for pIC50: read-out: IC50 Y188L
T1 construct: mutations that occur in the reverse transcriptase segment of the pol gene
Text: (§3) Based upon testing of these compounds, as described below, it is known that they inhibit the RNA-dependent DNA polymerase activity of HIV-1 RT. […] Utilising the Reverse Transcriptase (RT) Assay described below, compounds can be tested for their ability to inhibit the RNA-dependent DNA polymerase activity of HIV-1 RT. Certain specific compounds described in the Examples which appear below, were so tested. The results of this testing appear in Table 4 as IC50 (nM) and Table 5 as EC50 (nM).
as §1, §2

[3] = molecular target: T2, K103N/Y181C double mutant RT (HIV-1 RT) (Human immunodeficiency virus type 1 group M subtype B, UniProt P03366, K702N/Y780C); assay: biochemical
T2 construct: mutations that occur in the reverse transcriptase segment of the pol gene
Text: as §3, §1, §2

WT RT (HIV-1 RT) = molecular target: T3, WT RT (HIV-1 RT) (Human immunodeficiency virus type 1 group M subtype B, UniProt P03366); assay: biochemical
T3 construct: mutations that occur in the reverse transcriptase segment of the pol gene
Text: as §3, §1, §2

[4] = molecular target: T4, V106A mutant RT (HIV-1 RT) (Human immunodeficiency virus type 1 group M subtype B, UniProt P03366, V705A); assay: biochemical; conditions: for IC50: IC50 V106A (nM); for pIC50: read-out: IC50 V106A
T4 construct: mutations that occur in the reverse transcriptase segment of the pol gene
Text: as §3, §1, §2

[5] = tested on: K103N/Y181C (HIV-1 double mutant strain); assay: EC50 assay, K103N/Y181C strain; assay type: cell-based
Text: as §1, §2

[6] = Human immunodeficiency virus 1, read-out: EC50 WT RT (nM)
[7] = Human immunodeficiency virus 1, read-out: EC50 K103N/Y181C (nM), K103N/Y181C double mutant
[8] = wild type; read-out: EC50 WT RT
[9] = K103N/Y181C double mutant RT, read-out: IC50 K103N/Y181C
[10] = wild type RT, read-out: IC50 WT RT
[11] = K103N/Y181C double mutant; read-out: EC50 K103N/Y181C
[12] = read-out: EC50 WT RT; wild type
[13] = read-out: IC50 K103N/Y181C, K103N/Y181C double mutant RT
[14] = read-out: IC50 WT RT, wild type RT
[15] = read-out: EC50 K103N/Y181C; K103N/Y181C double mutant

SMILES | EC50 [1, 6] [nM] | IC50 [2] [nM] | pIC50 [3] | pIC50 (WT RT (HIV-1 RT)) | IC50 [4] [nM] | EC50 [5, 7] [nM] | pEC50 [1, 8] | pIC50 [2] | pIC50 [3, 9] | pIC50 (WT RT (HIV-1 RT); [10]) | pIC50 [4] | pEC50 [5, 11] | pEC50 [1, 12] | pIC50 [3, 13] | pIC50 (WT RT (HIV-1 RT); [14]) | pEC50 [5, 15]
CCN1c2ncc(CCOc3ccc(/C=C/C(=O)O)c4ccccc34)cc2C(=O)N(C)c2ccc(F)nc21 [Entry 1032] | < 100 | 100 to 1000 | 6.00 to 7.00 | > 7.00 | 100 to 1000 | < 100 | – | – | – | – | – | – | – | – | – | –
CCN1c2ncc(CCOc3ccc(/C=C/C(=O)O)c4ccccc34)cc2C(=O)N(C)c2ccc(C)nc21 [Entry 1033] | < 100 | 100 to 1000 | 6.00 to 7.00 | > 7.00 | 100 to 1000 | < 100 | – | – | – | – | – | – | – | – | – | –
CCN1c2ncc(CCOc3ccc(/C=C/C(=O)O)c4ccccc34)cc2C(=O)Nc2c(C)cc(F)nc21 [Entry 1034] | < 100 | > 1000 | 6.00 to 7.00 | > 7.00 | < 100 | < 100 | – | – | – | – | – | – | – | – | – | –
CCN1c2ncc(CCOc3ccc(/C=C(\C)C(=O)O)c4ccccc34)cc2C(=O)N(C)c2cccnc21 [Entry 1035] | < 100 | > 1000 | 6.00 to 7.00 | > 7.00 | > 1000 | < 100 | – | – | – | – | – | – | – | – | – | –
CCN1c2ncc(CCOc3ccc(/C=C(\C)C(=O)O)c4ccccc34)cc2C(=O)N(C)c2ccc(Cl)nc21 [Entry 1036] | < 100 | > 1000 | 6.00 to 7.00 | > 7.00 | 100 to 1000 | < 100 | – | – | – | – | – | – | – | – | – | –
CCN1c2ncc(CCOc3ccc(/C=C(\C)C(=O)O)c4ccccc34)cc2C(=O)N(C)c2ccc(F)nc21 [Entry 1037] | < 100 | > 1000 | 6.00 to 7.00 | > 7.00 | > 1000 | < 100 | – | – | – | – | – | – | – | – | – | –
CCN1c2ncc(CCOc3ccc(/C=C(\C)C(=O)O)c4ccccc34)cc2C(=O)N(C)c2ccc(C)nc21 [Entry 1038] | < 100 | > 1000 | 6.00 to 7.00 | > 7.00 | > 1000 | < 100 | – | – | – | – | – | – | – | – | – | –
CCN1c2ncc(CCOc3ccc(/C=C(\C)C(=O)O)c4ccccc34)cc2C(=O)Nc2c(C)cc(Cl)nc21 [Entry 1040] | < 100 | > 1000 | 6.00 to 7.00 | > 7.00 | 100 to 1000 | 100 to 1000 | – | – | – | – | – | – | – | – | – | –
CCN1c2ncc(CCOc3ccc(CC(C)C(=O)O)c4ccccc34)cc2C(=O)N(C)c2cccnc21 (stereo not drawn) [Entry 1042] | < 100 | > 1000 | 6.00 to 7.00 | > 7.00 | > 1000 | < 100 | – | – | – | – | – | – | – | – | – | –
CCN1c2ncc(CCOc3ccc(CC(C)C(=O)O)c4ccccc34)cc2C(=O)N(C)c2ccc(Cl)nc21 (stereo not drawn) [Entry 1044] | < 100 | > 1000 | 6.00 to 7.00 | > 7.00 | > 1000 | < 100 | – | – | – | – | – | – | – | – | – | –
CCN1c2ncc(CCOc3ccc(/C(C)=C/C(=O)O)c4ccccc34)cc2C(=O)N(C)c2cccnc21 [Entry 1048] | < 100 | > 1000 | 6.00 to 7.00 | > 7.00 | > 1000 | < 100 | – | – | – | – | – | – | – | – | – | –
C=C(CC(=O)O)c1ccc(OCCc2cnc3c(c2)C(=O)N(C)c2cccnc2N3CC)c2ccccc12 [Entry 1049] | < 100 | > 1000 | 6.00 to 7.00 | > 7.00 | > 1000 | 100 to 1000 | – | – | – | – | – | – | – | – | – | –
CCN1c2ncc(CCOc3ccc(C4CC4C(=O)O)c4ccccc34)cc2C(=O)N(C)c2ccc(F)nc21 (stereo not drawn) [Entry 1050] | < 100 | 100 to 1000 | 6.00 to 7.00 | > 7.00 | 100 to 1000 | 100 to 1000 | – | – | – | – | – | – | – | – | – | –
CCN1c2ncc(CCOc3ccc(C(C)CC(=O)O)c4ccccc34)cc2C(=O)N(C)c2cccnc21 (stereo not drawn) [Entry 1051] | < 100 | > 1000 | 6.00 to 7.00 | > 7.00 | > 1000 | < 100 | – | – | – | – | – | – | – | – | – | –
CCN1c2ncc(CCOc3ccc(NC(=O)CCC(=O)O)c4ccccc34)cc2C(=O)N(C)c2cccnc21 [Entry 2006] | – | – | – | – | – | – | > 7.00 | < 6.00 | 6.00 to 7.00 | > 7.00 | < 6.00 | 6.00 to 7.00 | – | – | – | –
CCN1c2ncc(CCOc3cccc4c(S(=O)(=O)NCC(=O)O)cccc34)cc2C(=O)N(C)c2cccnc21 [Entry 2008] | 100 to 1000 | 100 to 1000 | > 7.00 | > 7.00 | 100 to 1000 | 100 to 1000 | – | – | – | – | – | – | – | – | – | –
CCN1c2ncc(CCOc3ccc(/C=C/C(=O)O)c4ccccc34)cc2C(=O)N(C)c2ccc(F)nc21 [Entry 2014] | – | > 1000 | – | – | – | – | – | – | – | – | 6.00 to 7.00 | – | > 7.00 | 6.00 to 7.00 | > 7.00 | 6.00 to 7.00
CCN1c2ncc(CCOc3ccc(/C=C/C(=O)O)c4ccccc34)cc2C(=O)N(C)c2ccc(Cl)nc21 [Entry 2016] | – | – | – | – | – | – | – | 6.00 to 7.00 | – | – | 6.00 to 7.00 | – | > 7.00 | 6.00 to 7.00 | > 7.00 | 6.00 to 7.00
CCN1c2ncc(CCOc3ccc(/C=C/C(=O)O)c4ccccc34)cc2C(=O)Nc2c(C)cc(Cl)nc21 [Entry 2018] | – | – | – | – | 100 to 1000 | – | – | < 6.00 | – | – | – | – | > 7.00 | 6.00 to 7.00 | > 7.00 | 6.00 to 7.00
CCN1c2ncc(CCOc3ccc(CCC(=O)NN)c4ccccc34)cc2C(=O)N(C)c2cccnc21 [Entry 2020] | – | – | – | – | – | – | > 7.00 | < 6.00 | 6.00 to 7.00 | > 7.00 | < 6.00 | 6.00 to 7.00 | – | – | – | –
CCN1c2ncc(CCOc3ccc4cc(C(=O)NN)ccc4c3)cc2C(=O)N(C)c2cccnc21 [Entry 3002] | < 100 | > 1000 | 6.00 to 7.00 | > 7.00 | < 100 | 100 to 1000 | – | – | – | – | – | – | – | – | – | –
CCN1c2ncc(CCOc3ccc4cc(C(=O)NC(C)(C)C(=O)O)ccc4c3)cc2C(=O)N(C)c2cccnc21 [Entry 3003] | < 100 | > 1000 | 6.00 to 7.00 | > 7.00 | 100 to 1000 | 100 to 1000 | – | – | – | – | – | – | – | – | – | –
CCN1c2ncc(CCOc3ccc4cc(CC(=O)NN)ccc4c3)cc2C(=O)N(C)c2cccnc21 [Entry 3005] | < 100 | 100 to 1000 | 6.00 to 7.00 | > 7.00 | < 100 | < 100 | – | – | – | – | – | – | – | – | – | –
CCN1c2ncc(CCOc3ccc(C(=O)O)c4c3CCC4)cc2C(=O)N(C)c2cccnc21 [Entry 4001] | < 100 | > 1000 | 6.00 to 7.00 | > 7.00 | 100 to 1000 | < 100 | – | – | – | – | – | – | – | – | – | –
